Test results as given in PMC5218480 (PLoS ONE, 2017).

Tested on: MV-4-11 cells
Assay: Gene expression microarray analysis (Affymetrix PrimeView) and GSEA
Type: cell-based, human
Parameters: RFU PODN (11730768_x_at) / Fold change /veh PODN (11730768_x_at) / RFU LINC00158 (11744669_a_at) / Fold change /veh LINC00158 (11744669_a_at) / RFU DUSP10 (11751237_a_at) / Fold change /veh DUSP10 (11751237_a_at) / RFU ID3 (11757404_x_at) / Fold change /veh ID3 (11757404_x_at) / RFU PLEKHG5 (11737974_s_at) / Fold change /veh PLEKHG5 (11737974_s_at) / RFU LRRC4B (11730491_at) / Fold change /veh LRRC4B (11730491_at) / RFU GIMAP4 (11747438_a_at) / Fold change /veh GIMAP4 (11747438_a_at) / RFU KRT8 (11758183_x_at) / Fold change /veh KRT8 (11758183_x_at) / RFU CNN1 (11734310_a_at) / Fold change /veh CNN1 (11734310_a_at) / RFU VPS37D (11726825_at) / Fold change /veh VPS37D (11726825_at) / RFU C10orf10 (11716522_x_at) / Fold change /veh C10orf10 (11716522_x_at) / RFU KIR2DL2 /// KIR2DL4 /// KIR2DL5A /// KIR2DL5B /// KIR2DS1 /// KIR2DS2 /// KIR2DS3 /// KIR2DS4 /// KIR3DL3 /// KIR3DL3 /// KIR3DS1 (11738374_at) / Fold change /veh KIR2DL2 /// KIR2DL4 /// KIR2DL5A /// KIR2DL5B /// KIR2DS1 /// KIR2DS2 /// KIR2DS3 /// KIR2DS4 /// KIR3DL3 /// KIR3DL3 /// KIR3DS1 (11738374_at) / RFU C1QL1 (11718748_at) / Fold change /veh C1QL1 (11718748_at) / RFU TMPRSS4 (11747572_a_at) / Fold change /veh TMPRSS4 (11747572_a_at) / RFU HAMP (11756126_x_at) / Fold change /veh HAMP (11756126_x_at) / RFU RNFT2 (11725882_a_at) / Fold change /veh RNFT2 (11725882_a_at) / RFU NR4A2 (11747474_a_at) / Fold change /veh NR4A2 (11747474_a_at) / RFU ABCC12 (11746883_a_at) / Fold change /veh ABCC12 (11746883_a_at) / RFU TMEM136 (11760407_x_at) / Fold change /veh TMEM136 (11760407_x_at) / RFU CLDN22 /// WWC2 (11732394_at) / Fold change /veh CLDN22 /// WWC2 (11732394_at) / RFU HLA-DPB1 (11760878_x_at) / Fold change /veh HLA-DPB1 (11760878_x_at) / RFU SPINT1 (11716480_a_at) / Fold change /veh SPINT1 (11716480_a_at) / RFU GAP43 (11754022_s_at) / Fold change /veh GAP43 (11754022_s_at) / RFU A4GNT (11735810_at) / Fold change /veh A4GNT (11735810_at) / RFU PRB3 (11715151_x_at) / Fold change /veh PRB3 (11715151_x_at) / RFU TUBB4B (11761932_at) / Fold change /veh TUBB4B (11761932_at) / RFU CAPN14 (11732068_a_at) / Fold change /veh CAPN14 (11732068_a_at) / RFU TMCC2 (11721928_a_at) / Fold change /veh TMCC2 (11721928_a_at) / RFU IRGQ (11745062_a_at) / Fold change /veh IRGQ (11745062_a_at) / RFU FAM174B (11720279_a_at) / Fold change /veh FAM174B (11720279_a_at) / RFU TMPRSS4 (11748680_a_at) / Fold change /veh TMPRSS4 (11748680_a_at) / RFU FAM212B (11763350_a_at) / Fold change /veh FAM212B (11763350_a_at) / RFU PLEKHG5 (11743358_a_at) / Fold change /veh PLEKHG5 (11743358_a_at) / RFU ZSCAN30 (11745921_a_at) / Fold change /veh ZSCAN30 (11745921_a_at) / RFU CMKLR1 (11741424_a_at) / Fold change /veh CMKLR1 (11741424_a_at) / RFU LOC101060620 /// MAPK8IP1 (11723275_at) / Fold change /veh LOC101060620 /// MAPK8IP1 (11723275_at) / RFU SPTSSB (11747773_x_at) / Fold change /veh SPTSSB (11747773_x_at) / RFU PRSS12 (11739890_at) / Fold change /veh PRSS12 (11739890_at) / RFU BIN1 (11741810_x_at) / Fold change /veh BIN1 (11741810_x_at) / RFU WNT11 (11732464_a_at) / Fold change /veh WNT11 (11732464_a_at) / RFU C10orf10 (11716521_a_at) / Fold change /veh C10orf10 (11716521_a_at) / RFU C5orf56 (11738089_at) / Fold change /veh C5orf56 (11738089_at) / RFU CYB561 (11721691_x_at) / Fold change /veh CYB561 (11721691_x_at) / RFU ANKRD19P (11752326_a_at) / Fold change /veh ANKRD19P (11752326_a_at) / RFU OR2T12 /// OR2T33 /// OR2T8 (11738714_s_at) / Fold change /veh OR2T12 /// OR2T33 /// OR2T8 (11738714_s_at) / RFU VCAN (11748164_a_at) / Fold change /veh VCAN (11748164_a_at) / RFU JSRP1 (11732532_at) / Fold change /veh JSRP1 (11732532_at) / RFU KRTAP10-11 (11738290_x_at) / Fold change /veh KRTAP10-11 (11738290_x_at) / RFU MYO3A (11730013_a_at) / Fold change /veh MYO3A (11730013_a_at) / RFU EBF3 (11725865_a_at) / Fold change /veh EBF3 (11725865_a_at) / RFU CAMK2N1 (11719241_x_at) / Fold change /veh CAMK2N1 (11719241_x_at) / RFU C5orf56 (11738088_a_at) / Fold change /veh C5orf56 (11738088_a_at) / RFU OLFML3 (11715873_a_at) / Fold change /veh OLFML3 (11715873_a_at) / RFU LOC100653217 /// NTM (11731650_a_at) / Fold change /veh LOC100653217 /// NTM (11731650_a_at) / RFU MAPK11 (11762145_a_at) / Fold change /veh MAPK11 (11762145_a_at) / RFU FIZ1 (11724087_x_at) / Fold change /veh FIZ1 (11724087_x_at) / RFU OASL (11726364_x_at) / Fold change /veh OASL (11726364_x_at) / RFU SOX15 (11748057_x_at) / Fold change /veh SOX15 (11748057_x_at) / RFU CD79A (11719716_a_at) / Fold change /veh CD79A (11719716_a_at) / RFU HIST1H1D (11736915_at) / Fold change /veh HIST1H1D (11736915_at) / RFU CASKIN2 (11723855_a_at) / Fold change /veh CASKIN2 (11723855_a_at) / RFU LOC730098 (11760151_x_at) / Fold change /veh LOC730098 (11760151_x_at) / RFU OR4N2 (11742367_at) / Fold change /veh OR4N2 (11742367_at) / RFU PRRT2 (11749266_a_at) / Fold change /veh PRRT2 (11749266_a_at) / RFU SNX32 (11753110_a_at) / Fold change /veh SNX32 (11753110_a_at) / RFU CDHR5 (11726645_a_at) / Fold change /veh CDHR5 (11726645_a_at) / RFU RCAN1 (11760418_a_at) / Fold change /veh RCAN1 (11760418_a_at) / RFU FAM167A (11723789_a_at) / Fold change /veh FAM167A (11723789_a_at) / RFU FAM26E (11764081_at) / Fold change /veh FAM26E (11764081_at) / RFU ISYNA1 (11749810_s_at) / Fold change /veh ISYNA1 (11749810_s_at) / RFU ACY1 (11761880_at) / Fold change /veh ACY1 (11761880_at) / RFU 11764098_at / Fold change /veh 11764098_at / RFU SAMD14 (11745864_x_at) / Fold change /veh SAMD14 (11745864_x_at) / RFU NPB (11741838_a_at) / Fold change /veh NPB (11741838_a_at) / RFU TMPRSS6 (11731388_a_at) / Fold change /veh TMPRSS6 (11731388_a_at) / RFU KRTAP10-2 (11738614_at) / Fold change /veh KRTAP10-2 (11738614_at) / RFU ARHGAP8 /// PRR5-ARHGAP8 (11727945_x_at) / Fold change /veh ARHGAP8 /// PRR5-ARHGAP8 (11727945_x_at) / RFU KRTAP5-7 /// NADSYN1 (11734609_at) / Fold change /veh KRTAP5-7 /// NADSYN1 (11734609_at) / RFU RASL12 (11751679_a_at) / Fold change /veh RASL12 (11751679_a_at) / RFU CDKN2B (11736163_a_at) / Fold change /veh CDKN2B (11736163_a_at) / RFU PRF1 (11729649_at) / Fold change /veh PRF1 (11729649_at) / RFU, ZNF638 /// ZNF638-IT1 / Fold change vs veh, ZNF638 /// ZNF638-IT1 / RFU, PANK3 / Fold change vs veh, PANK3 / RFU, SH3YL1 / Fold change vs veh, SH3YL1 / RFU, ZEB2 / Fold change vs veh, ZEB2 / RFU, NRIP1 / Fold change vs veh, NRIP1 / RFU, PTTG1IP / Fold change vs veh, PTTG1IP / RFU, CAPN2 / Fold change vs veh, CAPN2 / RFU, MED14 / Fold change vs veh, MED14 / RFU, SNORA58 / Fold change vs veh, SNORA58 / RFU, C1orf63 / Fold change vs veh, C1orf63 / RFU, LRRFIP1 / Fold change vs veh, LRRFIP1 / RFU, NDUFAF7 / Fold change vs veh, NDUFAF7 / RFU, SLC12A2 / Fold change vs veh, SLC12A2 / RFU, IBTK / Fold change vs veh, IBTK / RFU, ESF1 / Fold change vs veh, ESF1 / Fold change vs veh, TMEM50B / RFU, TAOK1 / Fold change vs veh, TAOK1 / RFU, ACBD3 / Fold change vs veh, ACBD3 / RFU, TMA16 / Fold change vs veh, TMA16 / RFU, RWDD3 / Fold change vs veh, RWDD3 / RFU, BCAT1 / Fold change vs veh, BCAT1 / RFU, EDEM3 / Fold change vs veh, EDEM3 / RFU, TMEM33 / Fold change vs veh, TMEM33 / RFU, WDR75 / Fold change vs veh, WDR75 / RFU, AHCTF1 / Fold change vs veh, AHCTF1 / RFU, TFRC / Fold change vs veh, TFRC / RFU, ZDHHC17 / Fold change vs veh, ZDHHC17 / RFU, NOM1 / Fold change vs veh, NOM1 / RFU, ARL8B / Fold change vs veh, ARL8B / RFU, ZBTB11 / Fold change vs veh, ZBTB11 / RFU, TAMM41 / Fold change vs veh, TAMM41 / RFU, KIAA1704 /// LOC100996395 / Fold change vs veh, KIAA1704 /// LOC100996395 / RFU, ING1 / Fold change vs veh, ING1 / RFU, TRMT61B / Fold change vs veh, TRMT61B / RFU, FUBP3 / Fold change vs veh, FUBP3 / RFU, TP53 / Fold change vs veh, TP53 / RFU, TNKS2 / Fold change vs veh, TNKS2 / RFU, ZFP14 / Fold change vs veh, ZFP14 / RFU, ACTR2 / Fold change vs veh, ACTR2 / RFU, PPP3R1 / Fold change vs veh, PPP3R1 / RFU, PIK3R1 / Fold change vs veh, PIK3R1 / RFU, HNRNPA1 / Fold change vs veh, HNRNPA1 / RFU, RNF170 / Fold change vs veh, RNF170 / RFU, ZNF28 / Fold change vs veh, ZNF28 / RFU, RNGTT / Fold change vs veh, RNGTT / RFU, OGT / Fold change vs veh, OGT / RFU, BRD1 / Fold change vs veh, BRD1 / RFU, MARS / Fold change vs veh, MARS / RFU, ZNF655 / Fold change vs veh, ZNF655 / RFU, FAHD1 / Fold change vs veh, FAHD1 / RFU, BDP1 / Fold change vs veh, BDP1 / RFU, LRRCC1 / Fold change vs veh, LRRCC1 / RFU, ARID1A / Fold change vs veh, ARID1A / RFU, ZNF146 / Fold change vs veh, ZNF146 / RFU, ZNF330 / Fold change vs veh, ZNF330 / RFU, GPN3 / Fold change vs veh, GPN3 / RFU, C9orf123 / Fold change vs veh, C9orf123 / RFU, N4BP2L2 / Fold change vs veh, N4BP2L2 / RFU, ARFIP1 / Fold change vs veh, ARFIP1 / RFU, FAM179B / Fold change vs veh, FAM179B / RFU, BCL10 / Fold change vs veh, BCL10 / RFU, UHRF1BP1L / Fold change vs veh, UHRF1BP1L / RFU, BET1 / Fold change vs veh, BET1 / RFU, CNOT2 / Fold change vs veh, CNOT2 / RFU, ZNF268 / Fold change vs veh, ZNF268 / Fold change vs veh, ZNF507 / RFU, DGCR2 / Fold change vs veh, DGCR2 / RFU, WDSUB1 / Fold change vs veh, WDSUB1 / Fold change vs veh, HSP90B1 /// MIR3652 / RFU, ADSS / Fold change vs veh, ADSS / RFU, GK / Fold change vs veh, GK / RFU, ZNF148 / Fold change vs veh, ZNF148 / RFU, TAF9 / Fold change vs veh, TAF9 / RFU, SLC1A5 / Fold change vs veh, SLC1A5 / RFU, SLMO2 / Fold change vs veh, SLMO2 / RFU, ABCC4 / Fold change vs veh, ABCC4 / RFU, LOC101060439 /// RAP1B / Fold change vs veh, LOC101060439 /// RAP1B / RFU, RFX7 / Fold change vs veh, RFX7 / RFU, GTPBP10 / Fold change vs veh, GTPBP10 / RFU, CNEP1R1 / Fold change vs veh, CNEP1R1 / RFU, BIVM-ERCC5 /// ERCC5 / Fold change vs veh, BIVM-ERCC5 /// ERCC5 / RFU, ILF3 / Fold change vs veh, ILF3 / RFU 11762660_at / Fold change /veh 11762660_at / RFU VCAN (11757783_s_at) / Fold change /veh VCAN (11757783_s_at) / RFU DDX43 (11728927_at) / Fold change /veh DDX43 (11728927_at) / RFU KRT8 (11758188_x_at) / Fold change /veh KRT8 (11758188_x_at) / RFU NKD1 (11759106_at) / Fold change /veh NKD1 (11759106_at) / RFU SRD5A1 (11742802_a_at) / Fold change /veh SRD5A1 (11742802_a_at) / RFU TPSAB1 /// TPSB2 (11721975_s_at) / Fold change /veh TPSAB1 /// TPSB2 (11721975_s_at) / RFU GSTM3 (11746129_a_at) / Fold change /veh GSTM3 (11746129_a_at) / RFU IL23R (11737362_x_at) / Fold change /veh IL23R (11737362_x_at) / RFU TMEM51 (11727254_a_at) / Fold change /veh TMEM51 (11727254_a_at) / RFU PIWIL2 (11732686_x_at) / Fold change /veh PIWIL2 (11732686_x_at) / RFU ORM1 (11744905_x_at) / Fold change /veh ORM1 (11744905_x_at) / RFU CCDC152 (11743942_at) / Fold change /veh CCDC152 (11743942_at) / RFU ECM1 (11717891_a_at) / Fold change /veh ECM1 (11717891_a_at) / RFU IL23R (11748794_a_at) / Fold change /veh IL23R (11748794_a_at) / RFU TNFAIP8L3 (11732012_x_at) / Fold change /veh TNFAIP8L3 (11732012_x_at) / RFU MBOAT4 (11741988_at) / Fold change /veh MBOAT4 (11741988_at) / RFU 11764193_at / Fold change /veh 11764193_at / RFU TMEM53 (11763286_at) / Fold change /veh TMEM53 (11763286_at) / RFU MAGEB2 (11727129_at) / Fold change /veh MAGEB2 (11727129_at) / RFU TMEM200A (11744735_a_at) / Fold change /veh TMEM200A (11744735_a_at) / RFU CCDC152 (11751479_a_at) / Fold change /veh CCDC152 (11751479_a_at) / RFU FAM211A (11726209_a_at) / Fold change /veh FAM211A (11726209_a_at) / RFU RGS16 (11746705_a_at) / Fold change /veh RGS16 (11746705_a_at) / RFU VCAN (11755009_s_at) / Fold change /veh VCAN (11755009_s_at) / RFU RHOB (11743442_s_at) / Fold change /veh RHOB (11743442_s_at) / RFU RGS16 (11720943_a_at) / Fold change /veh RGS16 (11720943_a_at) / RFU RGS16 (11720944_at) / Fold change /veh RGS16 (11720944_at) / RFU, VPS4B / Fold change vs veh, VPS4B / RFU, CREB1 / Fold change vs veh, CREB1 / RFU, DNAJC13 / Fold change vs veh, DNAJC13 / RFU, GNAQ / Fold change vs veh, GNAQ / RFU, CDK5R1 / Fold change vs veh, CDK5R1 / RFU, ZRANB3 / Fold change vs veh, ZRANB3 / RFU, CUL4A / Fold change vs veh, CUL4A / RFU, CCNY / Fold change vs veh, CCNY / RFU, UFL1 / Fold change vs veh, UFL1 / RFU, COG3 / Fold change vs veh, COG3 / RFU, DIAPH2 / Fold change vs veh, DIAPH2 / RFU, SKA2 / Fold change vs veh, SKA2 / RFU, AFF3 / Fold change vs veh, AFF3 / RFU, LMF1 / Fold change vs veh, LMF1 / RFU, IPO11 / Fold change vs veh, IPO11 / RFU, DFFB / Fold change vs veh, DFFB / RFU, FOXP1 / Fold change vs veh, FOXP1 / RFU, CARD8 / Fold change vs veh, CARD8 / RFU, STRN3 / Fold change vs veh, STRN3 / RFU, ADK / Fold change vs veh, ADK / RFU, RASSF2 / Fold change vs veh, RASSF2 / RFU, WIPF1 / Fold change vs veh, WIPF1 / RFU, LARP1B / Fold change vs veh, LARP1B / RFU, RASA1 / Fold change vs veh, RASA1 / RFU, RB1 / Fold change vs veh, RB1 / RFU, PPFIA1 / Fold change vs veh, PPFIA1 / RFU, MAT2A / Fold change vs veh, MAT2A / RFU, CCT5 / Fold change vs veh, CCT5 / RFU, WDR92 / Fold change vs veh, WDR92 / RFU, CUX1 / Fold change vs veh, CUX1 / RFU, TTC7A / Fold change vs veh, TTC7A / RFU, TMEM135 / Fold change vs veh, TMEM135 / RFU, DEPTOR / Fold change vs veh, DEPTOR / RFU, CPM / Fold change vs veh, CPM / RFU, DNAJB6 / Fold change vs veh, DNAJB6 / RFU, CACNA2D3 / Fold change vs veh, CACNA2D3 / RFU, DTX4 / Fold change vs veh, DTX4 / RFU, TFCP2 / Fold change vs veh, TFCP2 / RFU, GMCL1 /// GMCL1P1 / Fold change vs veh, GMCL1 /// GMCL1P1 / RFU, AEBP2 / Fold change vs veh, AEBP2 / RFU, SNHG1 /// SNORD22 /// SNORD25 /// SNORD26 /// SNORD27 /// SNORD28 /// SNORD29 /// SNORD31 / Fold change vs veh, SNHG1 /// SNORD22 /// SNORD25 /// SNORD26 /// SNORD27 /// SNORD28 /// SNORD29 /// SNORD31 / Fold change (Aza/veh), C12orf56 (ProbeSet 11735607_a_at) / Fold change (ACY-1035/veh), C12orf56 (ProbeSet 11735607_a_at) / Fold change (Aza/veh), FGFR1OP (ProbeSet 11751329_s_at) / Fold change (ACY-1035/veh), FGFR1OP (ProbeSet 11751329_s_at) / Fold change (Aza/veh), VPS36 (ProbeSet 11739960_a_at) / Fold change (ACY-1035/veh), VPS36 (ProbeSet 11739960_a_at) / RFU SYPL1 (11715823_x_at) / Fold change /veh SYPL1 (11715823_x_at) / RFU IGFBP7 (11715501_s_at) / Fold change /veh IGFBP7 (11715501_s_at) / RFU REEP3 (11722064_at) / Fold change /veh REEP3 (11722064_at) / RFU IGLL1 (11728026_x_at) / Fold change /veh IGLL1 (11728026_x_at): dose or concentration left out as unconfirmed
Details: ProbeSet 11743580_s_at; LIST B

For `Nc1ncn([C@@H]2O[C@H](CO)[C@@H](O)[C@H]2O)c(=O)n1` [azacitidine], the “RFU, ACTR2” value was 932.68 RFU.
